One may read the melting point as the temperature of the solid-liquid transition.

Each structure is given as a SMILES string.

Results on 88 compounds are retold here after a melting point compilation (Tetko et al.; mined from patent text by program, amines drawn as free bases though some values may be those of a salt).

Compound `Cc1ccc(Oc2ccc(Oc3ccc(C)c(C)c3)cc2)cc1C` displayed a melting point of 106 °C.
The result for `Nc1nc2cc(S(=O)(=O)c3ccccc3)ccc2s1` reads 278 to 280 °C; that for `C[C@@H](N1CCN(c2ccc(OCC(F)(F)C(F)(F)F)cc2)C1=O)[C@@]1(c2ccc(F)cc2F)CO1`, 141 to 144 °C; that for `O=C(CO)c1ccc(F)cc1`, 116 to 117 °C.
Regarding `O=C1CN(c2cccc(Cl)c2)NC(=O)N1`, the melting point lay in the range of 224 to 226 °C.
`COC(=O)C(Oc1cc(-n2c(=O)cc(C(F)(F)F)n(C)c2=O)c(F)cc1Cl)C(=O)OC` registered a melting point of 141 °C.
The figure for `CNC(=O)C1(Nc2nc(Nc3cc4c(cc3OC)CCN(CCOC)CC4)ncc2Cl)CC1` is 211 to 215 °C.
For the compound `Clc1cccc(Nc2nccc(-c3ccnc(Cl)c3)n2)c1`, the melting point is 144 to 147 °C.
The figure for `O=C(OCC(Cl)(Cl)Cl)c1ncn2c1CN=C(c1ccccc1)c1cc(Br)ccc1-2` is 113 to 116 °C; for `O=Cc1ccc(F)c(OCc2ccccc2)c1` it is 68 to 69 °C; for `CSc1nc(C)nc(N)n1` it is 161 to 163 °C.
The result for `CC[C@@H]1CN(c2c(F)cc3c(=O)c(C(=O)O)cn4c3c2OC[C@@H]4C)C[C@H]1N` reads 189 to 191 °C.
The result for `CCOC(=O)c1cc(Cl)c(-n2nc(CC)c(C(N)=O)c2N)c(Cl)c1` reads 194 to 196 °C; that for `CCOC(=O)c1cnc(N2CCSCC2)nc1Cl`, 81 to 83 °C.
For `OCc1c(F)ccc(-c2ccc3nc(-c4ccc(Cl)cc4)cn3c2)c1F`, the melting point fell in the range of 214 to 216 °C.
The figure for `CN(Cc1ccc(NC(=O)c2coc3c2C(=O)CCC3)cc1)C(=O)OC(C)(C)C` is 150 °C; for `CN(C)c1ccc2c(n1)C(c1ccccc1Cl)=NCc1nncn1-2` it is 240 to 242 °C.
The result for `CC(=O)c1c(-c2cccs2)[nH]c(-c2ccncc2)c1C` reads 231 to 232 °C; that for `COC(=O)C1=C(C)NC(=O)N(C(=O)OC)C1c1cccc([N+](=O)[O-])c1` (stereo not drawn), 152 to 155 °C; that for `Fc1ccc(-c2cc3c(cc2Br)OCO3)cc1`, 86 to 87.5 °C.
The result for `CC1(C)OC(=O)C(Oc2cccc(F)c2)=C1c1ccc(S(C)(=O)=O)cc1` reads 136 to 138 °C; that for `CCC1(C)OC(=O)C(c2ccccc2)C(=O)O1` (stereo not drawn), 135 to 136 °C.
In turn, `COc1cc(OCCCCc2cn(-c3ccc(C(F)(F)F)cn3)nc2C(C)C)ccc1CCC(=O)O` came in with a melting point of 125 to 126 °C.
The result for `C=C(CN1C(=O)[C@H]2CCCN2C(=O)c2ccccc21)c1ccc(C(=O)Nc2ccccc2N)cc1` reads 160 to 162 °C; that for `Nc1ccn([C@H]2C=C[C@@H](O)C2)c(=O)n1` (racemic), 241 to 242 °C; that for `CC(C)(C)OC(=O)N1CCC(=O)N1c1ccc2ccccc2n1`, 112 °C.
In the case of `CCOC(=O)c1cccc(Nc2nccc(-c3cccnc3)n2)c1`, the melting point is 197 to 199 °C.
The result for `CC(C)(C)NCC(O)COc1ccc2oc(-c3ccc(OCc4ccccc4)c(OCc4ccccc4)c3)cc(=O)c2c1` (stereo not drawn) reads 156 to 157 °C; that for `CCC(=O)OC1c2ccccc2C(=O)N1c1ccc2ccc(Cl)nc2n1` (stereo not drawn), 160 °C; that for `O=C(O)[C@H](CCc1ccccc1)NS(=O)(=O)c1ccc2c(c1)Cc1ccccc1-2`, 128 to 131 °C.
The figure for `Cc1ccc2[nH]c3c(c2c1)C(C(=O)O)CCC3` (stereo not drawn) is 194 to 197 °C.
`CC(C)C(=O)Oc1ccc(C(=O)c2ccc(OC(=O)C(C)C)cc2)cc1` registered a melting point of 144 °C.
The result for `CNC(=S)N(C)c1nccs1` reads 68 to 69 °C; that for `CC(Cn1cc(-c2ccccc2)c2ccccc2c1=O)NCc1ccccc1` (stereo not drawn), 118 °C; that for `CC(C)(C)OC(=O)N1CCCC(C(=O)OCC(=O)C(C)(C)C)(C(=O)OCc2ccccc2)C1` (stereo not drawn), 60 °C.
The figure for `Sc1c(Cl)cc(Cl)c(Cl)c1S` is 115 to 116 °C; for `Cc1ccccc1NC(=O)Nc1ccc(-c2c(Cc3ccccc3)sc3ncnc(N)c23)cc1` it is 245 to 248 °C.
For `CCCOC(Nc1ccccc1)(OCCC)c1ccnc(C(=O)c2ccc(Cl)cc2)c1`, the melting point lay within 140 to 141 °C.
The result for `Cc1ccc(C2OC(=O)N(C(=O)NN3CCOCC3)C2C)cc1` (stereo not drawn) reads 124 to 125 °C.
The result for `CCCCCCCCCCCCCCCCCCNC(=O)OCC(CNS(=O)(=O)CCCI)NC(C)=O` (stereo not drawn) reads 101 to 102 °C; that for `CCOC(=O)c1cc(CC)sc1Nc1cc(F)c(F)cc1[N+](=O)[O-]`, 105 °C; that for `COc1cc(C(=O)N2Cc3ccc(C(=O)NCc4cccnc4)n3Cc3ccccc32)ccc1-c1ccccc1C`, 165 to 167 °C.
The result for `CNS(=O)(=O)c1cccc(NC(=O)c2cnn3c(C(F)(F)F)cc(-c4ccc(C(F)(F)F)cc4)nc23)c1` reads 232 °C; that for `CCc1cn(C2CC(O)C(CN=[N+]=[N-])O2)c(=O)[nH]c1=O` (stereo not drawn), 174 to 177 °C; that for `CNC(=O)c1sc(C(C)(C)C)cc1NC(=O)Nc1ccc(F)cc1`, 203 to 204 °C.
With `CCOC(=O)c1cn(C2CC2)c2c(OC(F)F)c(F)c(F)cc2c1=O`, the melting point lay in the range of 224 to 226 °C.
The figure for `NNc1nnc(Cl)cc1C(=O)O` is 198 to 201 °C.
The result for `CCC(C)(C)Nc1c(NCc2ccc(F)cc2)c(=O)c1=O` reads 255 to 257 °C; that for `CCOC(=O)c1ccc(CCc2coc(N)c2C#N)cc1`, 195 to 197 °C; that for `Oc1ccc([C@@H]2C[C@H]2c2ccccc2)cc1` (relative stereo), 78 to 79 °C.
In turn, `COc1cc(C(=O)c2c(N)sc3c2CCN(C(=O)c2ccc(Cl)cc2)C3)ccc1OC(C)C` registered a melting point of 118 to 119 °C.
The figure for `CCCCCCCCCCCCCCCCCCOCC(O)COC(c1ccccc1)(c1ccccc1)c1ccccc1` (stereo not drawn) is 53 to 55 °C; for `CCN(CC)C(=O)c1nc(C)n2c1CN=C(c1ccccc1F)c1cc(Cl)ccc1-2` it is 182 to 188 °C.
The figure for `C[C@H]([C@H](O)c1ccc2c(c1)OC(c1ccccc1)(c1ccccc1)O2)N1CCC(O)(c2ccccc2)CC1` (relative stereo) is 224 °C; for `Cc1cc(C)cc(SCCC(=O)O)c1` it is 69 to 70 °C.
The figure for `O=C(NCCBr)C1=C(C(=O)Nc2cc(OC3CCCC3)c(Cl)cc2F)CCCC1` is 140 to 142 °C; for `O=C(Nc1cc(Cl)cc(Cl)c1)Nc1ccc(Br)cc1-c1nnn[nH]1` it is 263 to 264 °C.
Compound `COc1ccc(S(=O)(=O)N(COCC[Si](C)(C)C)c2ccccc2I)cc1` returned a melting point of 69 to 70 °C.
The result for `O=C1c2ccccc2C(=O)N1CCc1ccc(OC2c3ccccc3CCc3ccccc32)cc1` reads 205 to 207 °C; that for `CS(=O)(=O)c1nnc(S(=O)(=O)Cc2ccc(Cl)cc2)s1`, 159 to 160 °C.
The result for `CCOC(=O)NNC=Nc1nc(-c2ccc(C3CCCCC3)cc2)cs1` reads 188 to 189 °C; that for `CS(=O)(=O)c1ccc(-c2cnn(-c3cc(Cl)cc(Cl)c3)c(=O)c2-c2ccc(F)cc2)cc1`, 289 to 294 °C; that for `CC(C)NCC1COC(=O)C1(c1ccccc1)c1ccccc1` (stereo not drawn), 78 to 80 °C.
The figure for `CCOC(=O)c1ccc(-n2cnnc2)cc1` is 209 to 211 °C.
The compound `Cc1c(C)c2c(c(C)c1NCc1ccccc1)C(c1cccc(C3OCCO3)c1)CO2` (stereo not drawn) had a melting point of 97 to 99 °C.
The result for `CC(C)(Cc1c(Sc2ccccc2)c2cc(F)ccc2n1Cc1ccc(Cl)cc1)C(=O)O` reads 162 to 163 °C; that for `CC(Br)C(=O)NC(C)(C)c1ccccc1` (stereo not drawn), 102 to 103 °C.
The result for `COc1cc2c(cc1OC)N(Cc1ccccc1)C(=O)CN=C2c1cccc(C(F)(F)F)c1` reads 175 to 178 °C; that for `N#Cc1ccc(Nn2cnnc2)cc1-c1ccccc1`, 181 to 182 °C; that for `COC(=O)CCC(Oc1cccc2c1cc(C)n2Cc1ccccc1)C(=O)OC` (stereo not drawn), 139 to 141 °C.
The figure for `CC(C)OC(=O)Nc1cc(C2CC2)on1` is 64.5 to 65.5 °C; for `CCC[C@H]1CC[C@H](c2ccc(CCC(F)F)cc2)CC1` it is 12 °C.
`O=C1C2=C(CCCC2)C(SSC2C3=C(CCCC3)C(=O)N2c2ccc(Cl)cc2F)N1c1ccc(Cl)cc1F` (stereo not drawn) came in with a melting point of 146 to 147 °C.
For `CC1(C)c2ccccc2C(C#N)c2ccccc21`, the melting point is 91 to 92 °C.
The figure for `CC(C)c1ccc(-n2nc(O)c3[nH]c4cc(Cl)ccc4c(=O)c3c2=O)cc1` is 323 to 326 °C; for `CSCC(C)(CN)C(=O)N(C)c1nnc(-c2cncc(F)c2)s1` (stereo not drawn) it is 154 to 157 °C; for `CC1(C)CC(CN2CCNC2=N[N+](=O)[O-])CO1` (stereo not drawn) it is 119 to 120 °C.
The figure for `O=C(NC(Cc1ccc(OCc2ccccc2)cc1)C(=O)O)c1cc2ccc(-c3ccc(Cl)cc3)cc2[nH]1` (stereo not drawn) is 202 to 204 °C; for `Cc1c(OCc2ccc(F)cc2)cnn(C(C)(C)C)c1=O` it is 65 to 66.5 °C; for `CC(=O)Oc1ccc2nc(NC(=O)Nc3ccccc3)sc2c1` it is 210 to 213 °C.
The compound `Nc1c(-c2ccc(-c3ccccc3F)cc2)nc2ccc(Cl)cc2c1C(=O)O` came in with a melting point of 247 to 249 °C.
`CCCCCCCCCCCCc1ccc2cccnc2c1O` came in with a melting point of 88.5 to 90 °C.
For the compound `Cc1nc(NC(=O)NC(=O)c2c(Cl)cccc2Cl)cnc1-c1ccc(Br)cc1`, the melting point fell in the range of 225 to 227 °C.
The figure for `CC(C(O)c1ccc2[nH]c(=O)[nH]c2c1)N1CCC(Cc2ccccc2)CC1` (stereo not drawn) is 221 to 222 °C.
The figure for `CC(C)(C)OC(=O)N1CCC(C=C(Br)Br)CC1` is 82.3 to 83.9 °C.
`Nc1cc(N2CCc3ccccc3C2)ccn1` came in with a melting point of 160 to 161 °C.
For the compound `COc1ccc(S(=O)(=O)n2ccc3cccc(-c4ccc(F)cc4)c32)cc1`, the melting point was in the range of 181 to 182 °C.
The result for `CC1(C)SCCN(S(=O)(=O)c2ccc(-c3ccc(Br)cc3)cc2)C1C(=O)NO` (stereo not drawn) reads 190 to 192 °C.
